Earlier results in article PMC5748270 (Organic & biomolecular chemistry, 2017).

Key:
HSV-1 = settings: read-out: HSV-1 antiviral EC50
B16 melanoma = settings: comparably to mitomycin C
Plasmodium falciparum K1 = settings: selectivity on par with artesunate

For manicol, the EC50 (HSV-1) is listed as 350 nM and the EC50 (HSV-2; read-out: HSV-2 antiviral EC50) is listed as 580 nM.

In the case of `O=c1c(O)cccc(O)c1O` [3,7-dHT, 3,7-Dihydroxytropolones], the “cell-based HIV antiviral activity” value (HIV) is listed as “promising cell-based HIV antiviral activity”, the “Activity against B16 melanoma cells relative to αHTs” value (B16 melanoma cells) is listed as “an order of magnitude greater than αHTs” and the “Lifespan of mice bearing B16 melanoma” value (B16 melanoma) is listed as “increases the lifespan”.

For `O=C(O)c1cc(O)c(O)c(=O)c(O)c1` [puberulic acid], the Antimalarial activity (Plasmodium falciparum K1) is given as “potent antimalarial activity”.

For `Nc1nc2c(ncn2COCCO)c(=O)[nH]1` [ACV, acyclovir], the “Potency against HSV-2 relative to HSV-1” value (HSV-2; obtained previously under identical conditions) is listed as “nearly an order of magnitude less potent”.
